Laboratory results: article PMC5971061, “Differential Effects of Linkers on the Activity of Amphiphilic Tobramycin Antifungals” (Molecules : A Journal of Synthetic Chemistry and Natural …, 2018)
≈ marks a conversion by molar mass, not a printed value. Like-named read-outs stand apart in the source and are kept apart here.

Tests used:
[1] = test system: Candida parapsilosis ATCC 22019 (strain J); assay: MIC, broth microdilution (CLSI M27-A3), yeast strain J; assay type: cell-based; conditions: Lodderomyces parapsilosis, ATCC22019; MIC-0, strain J, 35 °C 48 h
Experimental: (§1) The final concentrations of compounds 3, 4, 7a, 7b, 9, and 16, as well as that of TOB tested in this study ranged from 0.24–62.5 μg/mL. CAS was used as a positive control and the final concentrations tested for CAS ranged from 0.03–31.3 μg/mL. Briefly, overnight yeast cultures were grown in yeast peptone dextrose (YPD) broth and the cell density was adjusted to an OD600 of 0.12 (~1 × 10^6 CFU/mL) by using a spectrophotometer. Yeast cell suspensions were further diluted to achieve 1–5 × 10^3 CFU/mL in RPMI 1640 medium, and 100 μL of these yeast cells was added to 96-well microtiter plates containing RPMI 1640 medium and titrated compounds. Each test was performed in triplicate. The plates were incubated at 35 °C for 48 h.

[2] = test system: Candida parapsilosis clinical isolate CP3; assay: MIC, broth microdilution (CLSI M27-A3), CP3; assay type: cell-based; conditions: MIC-0, CP3, 35 °C 48 h
Experimental: as §1

[3] = test system: Aspergillus flavus ATCC MYA-3631 (strain K); assay: MIC, filamentous fungi (CLSI M38-A2), strain K; assay type: cell-based; conditions: MIC-0, strain K, 35 °C 72 h
Experimental: (§2) The spores were harvested from sporulating cultures growing on potato dextrose agar (PDA) by filtration through sterile glass wool and enumerated by using a hemocytometer (Hausser Scientific, Horsham, PA, USA) to obtain the desired inoculum size. Two-fold serial dilutions of compounds 3, 4, 7a, 7b, 9, and 16, as well as CAS and TOB were made in sterile 96-well microtiter plates to obtain the final concentration range of 0.24–62.5 μg/mL for TOB and TOB derivatives as well as 0.03–31.3 μg/mL for CAS in the RPMI 1640 medium. The spore suspensions were added to the wells to afford a final concentration of 5 × 10^5 spores/mL. The plates were incubated at 35 °C for 72 h. […] Each test was performed in triplicate.

[4] = test system: Aspergillus nidulans ATCC 38163 (strain L); assay: MIC, filamentous fungi (CLSI M38-A2), strain L; assay type: cell-based; conditions: MIC-0, strain L, 35 °C 72 h
Experimental: as §2

[5] = Hemolytic activity assay; assay type: cell-based, murine; conditions: mouse, murine red blood cells (mRBCs); for hemolysis at 1 h, 0.48 μg/mL / hemolysis at 1 h, 0.975 μg/mL / hemolysis at 1 h, 1.95 μg/mL / hemolysis at 1 h, 3.9 μg/mL / hemolysis at 1 h, 7.8 μg/mL / hemolysis at 1 h, 15.6 μg/mL / hemolysis at 1 h, 31.3 μg/mL / hemolysis at 1 h, 62.5 μg/mL: mRBCs, 37 °C 1 h, ± SDEV; for hemolysis at 1 h: at their MIC values against the Aspergillus strains
Experimental: (§3) The hemolytic activity of compounds 3, 4, 7a, 7b, and 9 as well as the parent compound TOB was determined by using previously described methods with minor modifications. Murine whole blood (1 mL) was suspended in 4 mL of PBS and centrifuged at 1000 rpm for 10 min at room temperature to obtain murine red blood cells (mRBCs). The mRBCs were washed four times in PBS and resuspended in the same buffer to a final concentration of 10^7 erythrocytes/mL. Two-fold serial dilutions of compounds 3, 4, 7a, 7b, and 9 were prepared using 100 μL of PBS buffer in Eppendorf tubes followed by the addition of 100 μL of mRBC suspension that made the final concentration of compounds and mRBCs to be 0.48–62.5 μg/mL and 5 × 10^6 erythrocytes/mL, respectively. The tubes were incubated at 37 °C for 1 h. The tubes with PBS buffer (200 μL) and Triton X-100® (1% v/v, 2 μL) served as the negative (blank) and positive controls, respectively. The percentage of hemolysis was calculated using the following equation: % hemolysis = [(absorbance of sample) − (absorbance of blank)] × 100/(absorbance of positive control).

[6] = test system: murine red blood cells (mRBCs); assay: Hemolytic activity assay; assay type: cell-based; conditions: at 3.9 μg/mL, 2- to 8-fold their MIC values against the three C. neoformans clinical isolates
Experimental: as §3

[7] = test system: A549 cell line; assay: In vitro cytotoxicity assay (resazurin), A549; assay type: cell-based, human; conditions: for IC50: Homo sapiens, A549, 24 h, resazurin
Experimental: Mammalian cytotoxicity assays were performed as previously described with minor modifications. The normal human bronchial epithelial cells BEAS-2B and the human lung carcinoma epithelial cells A549 were grown in DMEM containing 10% fetal bovine serum (FBS) and 1% antibiotics. The confluent cells were then trypsinized with 0.05% trypsin and 0.53 mM EDTA, and resuspended in fresh DMEM medium. The cells were transferred into 96-well microtiter plates at a density of 3000 cells/well and were grown for 24 h. The following day, the medium was replaced by a fresh culture medium containing serially diluted compounds 3, 4, 7a, 7b, and 9, as well as the parent drug TOB at final concentrations of 0.48–62.5 μg/mL or sterile ddH2O (negative control). The cells were incubated for an additional 24 h at 37 °C with 5% CO2 in a humidified incubator. To evaluate cell survival, each well was treated with 10 μL (25 μg/mL) of resazurin sodium salt (Sigma-Aldrich) for 4–6 h. Metabolically active cells can convert resazurin (blue) to the highly fluorescent dye resorufin (pink), which was detected at λ560 excitation and λ590 emission wavelengths by using a SpectraMax M5 plate reader. Triton X-100® (1% v/v) gave the complete loss of cell viability and was used as the positive control. The percentage survival rates were calculated by using the following formula: % cell survival = [(fluorescence of sample) − (fluorescence of blank)] × 100/[(fluorescence of negative control) − (fluorescence of blank)].

[8] = Aspergillus flavus, 72 h, read-out: MIC
[9] = Aspergillus nidulans, ATCC38163, 72 h, read-out: MIC

| Structure (SMILES) | MIC [1] [µg/mL] | MIC [2] [µg/mL] | MIC [3, 8] [µg/mL] | MIC [3] [µg/mL] | MIC [4, 9] [µg/mL] | MIC [4] [µg/mL] | hemolysis at 1 h, 0.48 μg/mL [5] [%] | hemolysis at 1 h, 0.975 μg/mL [5] [%] | hemolysis at 1 h, 1.95 μg/mL [5] [%] | hemolysis at 1 h, 3.9 μg/mL [5] [%] | hemolysis at 1 h, 7.8 μg/mL [5] [%] | hemolysis at 1 h, 15.6 μg/mL [5] [%] | hemolysis at 1 h, 31.3 μg/mL [5] [%] | hemolysis at 1 h, 62.5 μg/mL [5] [%] | hemolysis at 1 h [5] [%] | mRBCs lysed [6] | IC50 [7] [µg/mL] | toxicity (in words) ([7]; A549, 0.48-62.5 μg/mL, 24 h) |
| --- | --- | --- | --- | --- | --- | --- | --- | --- | --- | --- | --- | --- | --- | --- | --- | --- | --- | --- |
| CCCCCCCCCCCCSC[C@H]1O[C@H](O[C@@H]2[C@@H](O)[C@H](O[C@H]3O[C@H](CN)[C@@H](O)C[C@H]3N)[C@@H](N)C[C@H]2N)[C@H](O)[C@@H](N)[C@@H]1O [Compound 3, O-3-Amino-3-deoxy-6-S-dodecyl-6-thio-α-D-glucopyranosyl-(1→6)-O-[2,6-diamino-2,3,6-trideoxy-α-D-ribo-hexopyranosyl-(1→4)]-2-deoxy-D-streptamine] | 7.8 (≈ 12 µM) | 15.6 (≈ 23.9 µM) | 7.8 to 31.3 (≈ 12 to 48 µM) | 15.6 (≈ 23.9 µM) | 1.95 to 3.9 (≈ 2.99 to 5.98 µM) | 3.9 (≈ 5.98 µM) | 0 | 2.5 ± 2.3 | 6 ± 3.5 | 12 ± 1.9 | 18.6 ± 6.6 | 46.2 ± 2.3 | 55.5 ± 3.9 | 67 ± 4.6 | 12 to 74 | up to 13% |  |  |
| CCCCCCCCCCCCS(=O)(=O)C[C@H]1O[C@H](O[C@@H]2[C@@H](O)[C@H](O[C@H]3O[C@H](CN)[C@@H](O)C[C@H]3N)[C@@H](N)C[C@H]2N)[C@H](O)[C@@H](N)[C@@H]1O [Compound 4, O-3-Amino-3,6-dideoxy-6-(dodecylsulfonyl)-α-D-glucopyranosyl-(1→6)-O-[2,6-diamino-2,3,6-trideoxy-α-D-ribo-hexopyranosyl-(1→4)]-2-deoxy-D-streptamine] | 7.8 (≈ 11.4 µM) | 7.8 (≈ 11.4 µM) |  |  | 1.95 to 3.9 (≈ 2.85 to 5.7 µM) | 3.9 (≈ 5.7 µM) | 0 | 0 | 6.6 ± 3.5 | 6 ± 1.9 | 10.7 ± 3.1 | 15.3 ± 5 | 24.9 ± 2.3 | 31.2 ± 6.6 | 4 to 32 | up to 13% | > 62.5 |  |
| CCCCCCCCCCc1cn(C[C@H]2O[C@H](O[C@@H]3[C@@H](O)[C@H](O[C@H]4O[C@H](CN)[C@@H](O)C[C@H]4N)[C@@H](N)C[C@H]3N)[C@H](O)[C@@H](N)[C@@H]2O)nn1 [Compound 7a, O-3-Amino-3,6-dideoxy-6-(4-decyl-1H-1,2,3-triazol-1-yl)-α-D-glucopyranosyl-(1→6)-O-[2,6-diamino-2,3,6-trideoxy-α-D-ribo-hexopyranosyl-(1→4)]-2-deoxy-D-streptamine] | 15.6 (≈ 23.7 µM) | 31.3 (≈ 47.5 µM) |  |  | 1.95 to 3.9 (≈ 2.96 to 5.92 µM) | 3.9 (≈ 5.92 µM) | 0 | 0 | 15.6 ± 9.3 | 0 | 7.4 ± 3.1 | 14 ± 5.4 | 14.8 ± 1.9 | 14.8 ± 0.4 |  | up to 13% | > 62.5 |  |
| CCCCCCCCCCCC(=O)NC[C@H]1O[C@H](O[C@@H]2[C@@H](O)[C@H](O[C@H]3O[C@H](CN)[C@@H](O)C[C@H]3N)[C@@H](N)C[C@H]2N)[C@H](O)[C@@H](N)[C@@H]1O [Compound 9, O-3-Amino-3,6-dideoxy-6-[(1-oxododecyl)amino]-α-D-glucopyranosyl-(1→6)-O-[2,6-diamino-2,3,6-trideoxy-α-D-ribo-hexopyranosyl-(1→4)]-2-deoxy-D-streptamine] | 7.8 (≈ 12 µM) | 31.3 (≈ 48.2 µM) |  |  | 1.95 to 3.9 (≈ 3.01 to 6.01 µM) | 3.9 (≈ 6.01 µM) | 0 | 0 | 2.5 ± 1.5 | 4.1 ± 1.5 | 10.1 ± 4.6 | 18.3 ± 5.4 | 26 ± 11.6 | 31.5 ± 1.5 | 4 to 32 | up to 13% | > 62.5 |  |
| NC[C@H]1O[C@H](O[C@H]2[C@H](O)[C@@H](O[C@H]3O[C@H](CO)[C@@H](O)[C@H](N)[C@H]3O)[C@H](N)C[C@@H]2N)[C@H](N)C[C@@H]1O [TOB, tobramycin] | > 62.5 | > 62.5 | > 62.5 |  | > 62.5 |  | 4.7 ± 3.9 | 9.3 ± 3.5 | 15.9 ± 1.9 | 15.9 ± 8.1 | 11.2 ± 4.6 | 15.3 ± 5 | 15.3 ± 2.7 | 21.1 ± 9.3 |  |  |  | little to no toxicity |
